Assay results published in US9534004B2, “Crystalline forms of ceftaroline fosamil” (Sandoz AG, priority 2012, dated 2017).

How the values were obtained:
Assay type in all cases: physicochemical
[1] = Storage at different relative humidities (composition / pKa constancy); conditions: for change of composition when stored at different relative humidities: pKa of the drug substance not affected
From the text: Both ceftaroline fosamil acetic acid solvate monohydrate and ceftaroline fosamil propionic acid solvate monohydrate of EP1310502 A1 contain carbon acids in their crystal structure. […] Consequently in order to avoid batch-wise adjusting of the pH adjusting excipient, ceftaroline fosamil acetic acid solvate monohydrate and ceftaroline fosamil propionic acid solvate monohydrate of EP1310502 A1 need to be stored at low relative humidities in order to ensure a constant carbon acid amount and therefore a constant pKa value of the drug substance.

[2] = Residual solvent content; conditions: form obtained from slurry in aqueous ethanol
From the text: The amounts of residual solvents of the novel forms H and D of ceftaroline fosamil of the present invention are well within the allowed ICH-limits. E.g. for the production of form H of ceftaroline fosamil of the present invention no organic solvent is used as this specific form is obtained from a slurry in water. Form D is obtained from a slurry of ceftaroline fosamil in aqueous ethanol. […] Therefore ceftaroline fosamil forms H and D are suitable forms for the preparation of a medicament.

[3] = Humidity and temperature controlled XRPD (sorptive/desorptive cycle, 0-90% RH); conditions: RH varied between 0 and 90%, 25° C.
From the text: The positions of certain XRPD peaks of form H change when varying the RH between 0 and 90%. XRPD measurements in this range show anisotropic peak shifts to higher 2-theta angles on drying, which are reversible when increasing the relative humidity. These shifts are due to the shrinkage respectively the expansion of the unit cell caused by humidity dependent water contents in the sample. […] Table 1 lists some characteristic XRPD peaks from diffractograms recorded at increasing relative humidities during the sorptive cycle of the experiment.
For humidity and temperature controlled XRPD measurements samples were equilibrated in a VGI 2000M humidity chamber (SMS, Middlesex UK) with integrated peltier heat pump, circulating fluid pump and water reservoir to ensure uniform temperature distribution and stable sample humidities. RH controlled sorptive and desorptive measurements were recorded between 0%-90% RH+/−0.3% RH in 10% steps with an equilibrium time of 2 hours between consecutive measurements.

SMILES | fate of carbon acid in the crystal structure at increased relative humidities ([1]; increased relative humidities, decreased carbon acid amount affects pKa of drug substance) | ethanol amount (residual solvent) [2] | physical (solid form) stability on varying relative humidity, by XRPD [3] | change of composition when stored at different relative humidities [1]
CCO/N=C(\C(=O)N[C@@H]1C(=O)N2C(C(=O)[O-])=C(Sc3nc(-c4cc[n+](C)cc4)cs3)CS[C@H]12)c1nsc(NP(=O)(O)O)n1 [ceftaroline fosamil acetic acid solvate monohydrate, reference compound] | partially replaced by water | – | – | –
CCO/N=C(\C(=O)N[C@@H]1C(=O)N2C(C(=O)[O-])=C(Sc3nc(-c4cc[n+](C)cc4)cs3)CS[C@H]12)c1nsc(NP(=O)(O)O)n1 [form D, ceftaroline fosamil] | – | below 0.5% | no peak shifts are observed | only show variations in their water content
CCO/N=C(\C(=O)N[C@@H]1C(=O)N2C(C(=O)[O-])=C(Sc3nc(-c4cc[n+](C)cc4)cs3)CS[C@H]12)c1nsc(NP(=O)(O)O)n1 [form H, ceftaroline fosamil] | – | – | a phase transformation can be excluded | only show variations in their water content
